Source: ChEMBL document CHEMBL1128138, “The synthesis, and dopamine D2 and serotonin 5-HT3 receptor affinity of 3-aza analogues (pyridyl) of 4-amino-5-chloro-2-methoxybenzamides” (Bioorg Med Chem Lett, 1995)
pKi: −log10 of the molar value.

How the values were obtained:
D(2) dopamine receptor = D(2) dopamine receptor (Homo sapiens, UniProt P14416); assay: Binding affinity towards dopamine D2 receptor
Rattus norvegicus = assay: Ability to inhibit the Bezold-Jarisch reflex by i.v. administration; format: functional; conditions: iv, read-out: ID50 (the source's name)

Sequence of D(2) dopamine receptor (P14416 whole entry): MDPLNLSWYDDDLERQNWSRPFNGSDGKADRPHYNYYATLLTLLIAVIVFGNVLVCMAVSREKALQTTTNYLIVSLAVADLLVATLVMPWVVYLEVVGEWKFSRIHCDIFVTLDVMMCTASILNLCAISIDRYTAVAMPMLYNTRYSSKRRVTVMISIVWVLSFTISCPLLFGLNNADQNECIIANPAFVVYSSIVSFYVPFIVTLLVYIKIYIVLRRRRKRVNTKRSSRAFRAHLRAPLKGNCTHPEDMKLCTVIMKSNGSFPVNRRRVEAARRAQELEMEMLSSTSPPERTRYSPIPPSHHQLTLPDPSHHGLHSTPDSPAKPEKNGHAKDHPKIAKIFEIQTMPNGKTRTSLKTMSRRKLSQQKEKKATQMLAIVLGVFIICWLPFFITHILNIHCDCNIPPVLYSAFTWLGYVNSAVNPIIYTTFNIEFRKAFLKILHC

Compound	pKi (D(2) dopamine receptor)	ED50 (Rattus norvegicus) [µg/kg]
COc1cc(N)c(Cl)cc1C(=O)NC1CC2CCCC(C1)N2Cc1ccccc1 (centres undefined)	9.60	
COc1nc(N)c(Cl)cc1C(=O)NC1CC2CCCC(C1)N2Cc1ccccc1 (centres undefined)	8.90	
COc1cc(N)c(Cl)cc1C(=O)NC1CC2CCC(C1)N2C (centres undefined)		0.8
COc1cc(N)c(Cl)cc1C(=O)NC1CC2CCCC(C1)N2C (centres undefined)		0.4
